Measured values taken from patent publication US20090082332A1, “PURINE DERIVATIVES FOR THE TREATMENT OF VIRAL OR ALLERGIC DISEASES AND CANCERS” (priority 2005, published 2009).

Molecular target: T1, Recombinant human TLR7 (Homo sapiens, UniProt Q9NYK1)
T1 construct: expressed in transfected cells; host or cells: HEK293 cell line stably expressing the pNiFty2-SEAP reporter plasmid; TLR7 in pUNO vector, blasticidin selection
T1 sequence (Q9NYK1 27-1049): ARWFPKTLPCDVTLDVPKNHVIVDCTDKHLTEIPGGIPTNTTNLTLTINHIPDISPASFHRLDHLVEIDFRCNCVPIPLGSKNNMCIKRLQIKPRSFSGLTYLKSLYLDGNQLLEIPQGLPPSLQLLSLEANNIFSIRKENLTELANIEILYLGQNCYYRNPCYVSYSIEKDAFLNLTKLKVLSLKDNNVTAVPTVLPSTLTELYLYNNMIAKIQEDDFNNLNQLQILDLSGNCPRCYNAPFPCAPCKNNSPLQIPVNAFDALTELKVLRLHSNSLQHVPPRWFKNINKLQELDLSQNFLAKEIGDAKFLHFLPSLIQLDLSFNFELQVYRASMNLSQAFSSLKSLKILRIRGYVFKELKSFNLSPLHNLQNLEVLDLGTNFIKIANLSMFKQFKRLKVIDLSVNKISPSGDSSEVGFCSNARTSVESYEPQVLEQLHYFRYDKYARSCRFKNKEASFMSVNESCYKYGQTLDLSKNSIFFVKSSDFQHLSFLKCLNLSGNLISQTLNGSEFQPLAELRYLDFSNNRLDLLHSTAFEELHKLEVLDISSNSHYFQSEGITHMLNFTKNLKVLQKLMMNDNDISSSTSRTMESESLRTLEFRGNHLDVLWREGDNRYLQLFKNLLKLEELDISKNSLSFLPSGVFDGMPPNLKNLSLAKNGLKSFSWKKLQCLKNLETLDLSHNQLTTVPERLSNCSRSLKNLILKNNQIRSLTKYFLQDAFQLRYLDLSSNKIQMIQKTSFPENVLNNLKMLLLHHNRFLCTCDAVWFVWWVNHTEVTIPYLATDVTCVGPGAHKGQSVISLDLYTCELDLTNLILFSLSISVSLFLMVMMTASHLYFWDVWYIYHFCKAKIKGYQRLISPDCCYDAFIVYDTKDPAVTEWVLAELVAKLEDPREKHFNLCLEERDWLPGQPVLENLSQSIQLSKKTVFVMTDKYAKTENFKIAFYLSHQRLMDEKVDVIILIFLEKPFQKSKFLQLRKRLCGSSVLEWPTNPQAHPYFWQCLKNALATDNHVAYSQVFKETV
Assay: Human TLR7 assay (SEAP reporter in HEK293 cells)
Type: cell-based
Details: HEK293 cells expressing human TLR7 and pNiFty2-SEAP reporter; overnight incubation at 37° C., 0.1% (v/v) DMSO
From the text: Recombinant human TLR7 was stably expressed in a HEK293 cell line already stably expressing the pNiFty2-SEAP reporter plasmid; integration of the reporter gene was maintained by selection with the antibiotic zeocin. The most common variant sequence of human TLR7 (represented by the EMBL sequence AF240467) was cloned into the mammalian cell expression vector pUNO and transfected into this reporter cell-line. Transfectants with stable expression were selected using the antibiotic blasticidin. In this reporter cell-line, expression of secreted alkaline phosphatase (SEAP) is controlled by an NFkB/ELAM-1 composite promoter comprising five NFkB sites combined with the proximal ELAM-1 promoter. TLR signaling leads to the translocation of NFkB and activation of the promoter results in expression of the SEAP gene. TLR7-specific activation was assessed by determining the level of SEAP produced following overnight incubation of the cells at 37° C. with the standard compound in the presence of 0.1% (v/v) dimethylsulfoxide (DMSO). Concentration dependent induction of SEAP production by compounds was expressed as the log of the minimal effective concentration of compound to induce SEAP release (pMEC).

SMILES	pMEC (log of the minimal effective concentration of compound to induce SEAP release)
CCCCOc1nc(N)c2[nH]c(=O)n(CCCCN(Cc3cccc(CC(=O)OC)c3)C3CCN(C)CC3)c2n1 [Example 10, Methyl (3-{[[4-(6-amino-2-butoxy-8-oxo-7,8-dihydro-9H-purin-9-yl)butyl] (1-methylpiperidin-4-yl)amino]methyl}phenyl)acetate]	pMEC 8.4
CCCCOc1nc(N)c2[nH]c(=O)n(CCCN(Cc3cccc(CC(=O)OC)c3)C3CCN(CC#N)CC3)c2n1 [Example 14, Methyl [3-({[3-(6-amino-2-butoxy-8-oxo-7,8-dihydro-9H-purin-9-yl)propyl][1-(cyanomethyl)piperidin-4-yl]amino}methyl)phenyl]acetate]	pMEC 7.7
CCCCOc1nc(N)c2[nH]c(=O)n(CCCN(Cc3cccc(CC(=O)OC)c3)C3CCN(CCCC(=O)OC(C)(C)C)CC3)c2n1 [Example 17, tert-Butyl 4-(4-{[3-(6-amino-2-butoxy-8-oxo-7,8-dihydro-9H-purin-9-yl)propyl][3-(2-methoxy-2-oxoethyl)benzyl]amino}piperidin-1-yl)butanoate]	pMEC 9.1
